In patent US20250152580A1, “METHODS FOR TREATING IMMUNE DISEASES” (Ascentage Pharma (Suzhou) co., Ltd., priority 2022, published 2025):
Entries after “also recorded” stand apart in the source; their conditions may differ.

How the values were obtained:
Assay type in all cases: in vivo
[1] = test system: LPS inhalation induced lung neutrophils infiltration model; assay: LPS inhalation induced neutrophils infiltration model in C57BL/6 mice; settings: Cpd. 4 50 mg/kg oral each day, Cpd. X 50 mg/kg iv twice a week, Cpd. XI 12 mg/kg iv twice a week, week 4-10, compared with Vehicle
Description: C57BL/6 mice (6-8 weeks old) were obtained from Shanghai LC Laboratory Animal Co. Ltd. Animals, housed and handled in a temperature-controlled environment with a 12-h light/12-h dark cycle. A total of 60 female C57BL/6J mice will be modeled by atomization inhalation LPS 3 times a week for 10 weeks (adjustments may be made according to animal health status). LPS concentration is at 0.7 mg/mL. On each day of challenge, animals in G1 will receive aerosol inhalation of PBS and intravenous injection of Vehicle; animals in G2 will receive aerosol inhalation of LPS and intravenous injection of Vehicle; animals in G3 will be given aerosol inhalation of LPS and intravenous injection of 50 mg/kg Cpd. X twice a week (D1/4) from week 4-10; animals in G4 will be given aerosol inhalation of LPS and intravenous injection of 12 mg/kg Cpd.XI twice a week (D1/4) from week 4-10; animals in G5 will be given aerosol inhalation of LPS and oral administration of 50 mg/kg Cpd. 4 each day from week 4-10; animals in G6 will be given aerosol inhalation of LPS and oral administration of dexamethasone 1 hour before each challenge. Lungs will be gently lavaged via the tracheal cannula with 0.8 mL of PBS containing 1% BSA and 0.6 mM EDTA 48 hr after the last LPS exposure. The procedure will be repeated twice with 0.8 mL of PBS containing 1% BSA and 0.6 mM EDTA. The bronchoalveolar lavage fluid (BALF) will be centrifuged at 300×g for 5 min at 4° C., the cell pellet will be resuspended in 1.5 mL PBS. Total numbers of neutrophils in BALF will be counted using a hemocytometer.

OVA induced asthma model = assay: OVA (ovalbumin) induced asthma model in Balb/cA mice
Text: Ovalbumin (OVA)-sensitized and challenged BALB/c mice are widely used as an asthma model and are characterized by high levels of serum IgE, airway inflammation, epithelial hypertrophy, goblet cell hyperplasia, and AHR, which are similar to the features observed in human allergic asthma.
Female Balb/cA mice (8 weeks old) were obtained from Shanghai Jihui Laboratory Animal Co. Ltd. Animals were housed and handled in a temperature-controlled environment with a 12-h light/12-h dark cycle. A total of 66 mice were assigned to 6 groups by randomization based on body weight.
Mice in Group 2 are intraperitoneally immunized with OVA (25 μg) emulsified in Imject alum (2.0 mg of Al[OH]3) on day 1. During this sensitization phase, the mice produce anti-OVA IgE antibodies, which bind IgE receptors on mast cells. After this sensitization, the mice are intratracheally challenged with OVA from day 8 today 14, resulting in OVA cross-linked IgE on mast cells and leading to degranulating mast cells. Mice then develop clinical features of asthma. The mice in the Group 1 normal control group were sensitized and challenged with […] (without OVA).
Mice in Group 1 and Group 2 were treated with vehicle for 7 days (po, qd, from day 8 to day 14). Mice in Group 3 were treated with 50 mg/kg Cpd. X for 8 days (iv, biw, day 1 and day 4). Mice in Group 4 were treated with 30 mg/kg Cpd. 4 for 7 days (po, qd, from day 8 to day 14). Mice in Group 5 were treated with 100 mg/kg Cpd. 4 for 7 days (po, qd, from day 8 to day 14). 3 mg/kg dexamethasone was used as positive control which was orally administered to mice in Group 6 for 7 days (qd, from day 8 to day 14). The protocols and procedures involving the care and use of animals were approved by the Institutional Animal Care and Use Committee (IACUC) at KCI (Suzhou, China).
Airway responsiveness was determined invasively based on lung resistance.
After challenge with aerosolized methacholine. Briefly, mice were challenged with methacholine aerosol in increasing concentrations (0, 6.25, 12.5, and 25 mg/mL in saline) on day 13 by using the noninvasive pulmonary function instrument. Data on lung resistance were continuously collected, and mean values were selected to express changes in airway function and regarded as one form of inflammation expression. Data are presented as the airway stenosis index (penh).
Twenty-four hours after the final OVA challenge (on day 15), mice were killed, and BAL cells were collected by means of slow injection of ice-cold PBS into the trachea, which was repeated 3 times. Numbers of cells in BAL fluid were counted with a chamber. Number of eosinophils in a total of 100 cells was counted under a microscope. Results are expressed as percentage of eosinophils of BAL fluid.
Twenty-four hours after the final OVA challenge (on day 15), mice were killed, and the serum was collected. The OVA-specific IgE levels were measured with the method of enzyme linked immunosorbent assay (ELISA) according to manufacturer protocol.
Twenty-four hours after the final OVA challenge (on day 15), mice were killed, and the lung tissue samples were collected and fixed in 4% paraformaldehyde. Then, they were embedded in paraffin and cut into […] sections for histopathological analysis. Lung sections were then stained with hematoxylin and eosin (H&E) to calculate the inflammatory changes. The histopathological score was evaluated microscopically in a blinded manner. Five arbitrarily selected fields of each mouse were photographed with an optical microscope and the images were determined and analyzed in detail. […]

[2] = test system: TNBS induced inflammatory bowel disease (IBD) model; assay: TNBS induced inflammatory bowel disease (IBD) model in Balb/c mice; settings: 50 mg/kg po qd, mesalamine day −1 to day 6, compared with Vehicle
Text: There are two kinds of IBD: Crohn's disease (CD) and ulcerative colitis (UC). TNBS administration results in a preclinical mouse model replicating clinical Crohn's disease.
Female Balb/c mice (8 weeks old) were obtained from Beijing Vital River Laboratory Animal Co. Ltd. Animals were housed and handled in a temperature-controlled environment with a 12-h light/12-h dark cycle. A total of 50 mice were assigned to 5 groups by randomization based on body weight.
On Day 0, the mice weighing 18-20 g were anesthetized with […] (Easycheck, M2910). The mice were further intra-rectally injected 100 μL 1.5% TNBS solution (final concentration 50% ethanol) in the vehicle group and other treatment groups. For the Sham group, the mice were intra-rectally injected with 50% ethanol at the same volume.
Mice in Group 1 and Group 2 were treated with vehicle for 8 days (po, qd, from day −1 to day 6). Mice in Group 3 were treated with 50 mg/kg Cpd. 4 for 8 days (preventive regimen, po, qd, from day −1 to day 6). Mice in Group 4 were treated with 50 mg/kg Cpd. 4 for 6 days (therapeutic regimen, po, qd, from day 1 to day 6). 50 mg/kg Mesalamine was used as positive control which was orally administered to mice in Group 5 for 8 days (preventive regimen, qd, from day −1 to day 6). The protocols and procedures involving the care and use of animals were approved by the Institutional Animal Care and Use Committee (IACUC) at WuxiApptec (Shanghai, China).
Clinical signs of IBD were assessed every day based on the score of disease activity index (DAI) which was evaluated from three parameters using a scoring system from 0 to 4: stool consistency (0, normal stool; 1, soft but still formed stool; 2, soft and not formed stool; 3, very soft and wet stool; 4, watery diarrhea), bleeding score (0, negative hemoccult; 1, weak positive hemoccult; 2, positive hemoccult; 3, blood trace in stool visible; 4, gross rectal bleeding) and body weight loss (0, no body weight loos; 1, 1-5% body weight loss; 2, 6-10% body weight loss; 3, 11-20% body weight loss; 4, >20% body weight loss).
At the end of induction with TNBS (day 7), the animals were euthanized, dissected and the entire colon was quickly removed and gently cleared of feces.
The entire colon was weighed, and the total length was measured. Colon weight gain and shortening is an indirect marker of inflammation. As expected, colon weight induced by TNBS increased to 336.8±25.15 mg. […] The TNBS-induced colon weight increasement were improved by Cpd. 4 treatment (202.4±3.95 mg for 50 mg/kg Cpd. 4 preventive therapy and 214.4±5.17 mg for 50 mg/kg Cpd. 4 therapeutic therapy) (FIG. 2).
At the end of induction with TNBS, the animals were euthanized, and blood was collected immediately by the heart punctures and used for whole blood cell analysis.
At the end of the study (day 7), the cell suspensions from sham control, model control and Cpd. 4 therapeutic treatment groups were obtained from mesenteric lymph nodes (MLN). Cells were stained with the following florescence-labelled antibodies: APC-Cy7-conjugated anti-mouse CD45, BV510-conjugated anti-mouse CD3e, AF700-conjugated anti-mouse CD8a, BUV395-conjugated anti-mouse CD4, BV421-conjugated anti-mouse CD25, FITC-conjugated anti-mouse Foxp3, BV650-conjugated anti-mouse IFN-γ, BV786-conjugated anti-mouse IL-17A, BB700-conjugated anti-mouse TNF-α, APC-conjugated anti-mouse B220, BV395-conjugated anti-mouse CD3e, BV605-conjugated anti-mouse CD11b, BB700-conjugated anti-mouse CD11c, AF488-conjugated anti-mouse MHCII, BV421-conjugated anti-mouse NK1.1, BV510-conjugated anti-mouse Ly6G, PE-Cy7-conjugated anti-mouse CD107a and PE-CF594-conjugated anti-mouse F4/80. All cells were primarily gated on single and live lymphocytes based on forward scatter (FCS), side scatter (SSC) and live/dead staining buffer. Samples were analyzed on a flow cytometer (BD LSRFortessa) to count the percentage of each subtype of lymphocytes. […]

[3] = test system: IMQ induced psoriasis model; assay: IMQ induced psoriasis model in Balb/c mice; settings: Cpd. 4 100 mg/kg po qd day 0-6; tofacitinib 30 mg/kg po bid; compared with Vehicle
Text: Imiquimod (IMQ) is a ligand for TLRs (Toll-like receptors) of immune cells (including macrophages, monocytes and plasmacytoid dendritic cells), and therefore contributes to strong activation of the immune system.
Female Balb/c mice (7-8 weeks old) were obtained from B&K Universal Animal Co. Ltd. Animals were housed and handled in a temperature-controlled environment with a 12-h light/12-h dark cycle. A total of 36 mice were assigned to 4 groups by randomization based on body weight (6 mice in normal control group and 10 mice in other 3 groups).
At the beginning of the study on day 0, five groups were administered a daily topical dose of 80 mg of a cream preparation containing 5% IMQ on their hair-free backs to establish a model of IMQ-induced psoriasis for seven consecutive days. The G1 normal control group received appropriate vaseline.
Mice in Group 1 and Group 2 were treated with vehicle for 7 days (po, qd, from day 0 to day 6). Mice in Group 3 were treated with 100 mg/kg Cpd. 4 for 7 days (po, qd, from day 0 to day 6). Mice in Group 4 were treated with 30 mg/kg tofacitinib for 7 days (po, bid, from day 0 to day 6). The protocols and procedures involving the care and use of animals were approved by the Institutional Animal Care and Use Committee (IACUC) at KCI (Suzhou, China).
The severity of skin inflammation was monitored and graded using a modified human scoring system Psoriasis Area Severity Index (PASI). Scaling, thickness, and erythema were scored separately on a scale from 0 to 4:0, none; 1, slight; 2, moderate; 3, marked; and 4, very marked. The total score denotes severity of inflammation. Ear thickness of mice was measured every day from day 0 to day 7.
Ear thickness of mice was measured every day from day 0 to day 7. […] Compared with G1 normal control group, after IMQ treatment, ear swelling was observed indicated by increased ear thickness in G2 group reaching the maximal ear thickness to 0.40±0.02 mm on day 7. Cpd.

[4] = day 15, Cpd. 4 30 and 100 mg/kg po qd, Cpd. X 50 mg/kg iv biw, dexamethasone 3 mg/kg po qd, compared with Vehicle
[5] = Cpd. 4 preventive and therapeutic

Cc1c(S(C)(=O)=O)c(-c2cc(F)cc(N3CCN(c4ccc(NS(=O)(=O)c5ccc(N[C@H](CCN6CCC(C(=O)O)CC6)CSc6ccccc6)c(S(=O)(=O)C(F)(F)F)c5)cc4)CC3)c2)c(-c2ccc(Cl)cc2)n1C(C)C [Cpd. XI]
BALF neutrophils (infiltration in lung) [1]: significantly reduced
BALF neutrophils (infiltration in lung) ([1]; listed as Cpd.XI): significantly reducing the BALF neutrophils

Cc1c(S(C)(=O)=O)c(-c2cc(F)cc(N3CCN(c4ccc(NS(=O)(=O)c5ccc(N[C@H](CCN6CCC(C(=O)OCCCP(=O)(O)O)CC6)CSc6ccccc6)c(S(=O)(=O)C(F)(F)F)c5)cc4)CC3)c2)c(-c2ccc(Cl)cc2)n1C(C)C [Cpd. X]
pathological score in lung tissues (H&E) (OVA induced asthma model; 50 mg/kg iv biw, day 15, vehicle 4.08±0.23): 2.58±0.15
pathological score in lung tissues (in words) (OVA induced asthma model; Cpd. 4 and Cpd. X, compared with Vehicle): significantly ameliorated
percentage of eosinophils in BALF (OVA induced asthma model; [4]): downregulated markedly; also recorded: significantly downregulated
serum OVA-specific IgE (ELISA) (OVA induced asthma model; [4]): significantly reduced
airway stenosis index (penh), airway hyper-responsiveness (AHR) (OVA induced asthma model; methacholine challenge day 13, Cpd. 4 30 and 100 mg/kg po qd day 8-14, Cpd. X 50 mg/kg iv biw, dexamethasone 3 mg/kg po qd, compared with Vehicle): significant inhibitory activity; also recorded: significantly reduced
BALF neutrophils (infiltration in lung) [1]: significantly reducing the BALF neutrophils; also recorded: significantly reduced

Nc1ccc(O)c(C(=O)O)c1 [mesalamine, Mesalamine, reference compound]
disease activity index (DAI), clinical score of IBD ([2]; Cpd. 4 preventive (day −1 to day 6) and therapeutic (day 1 to day 6) regimens): significantly lowered DAI
colon length (in words) [2, 5]: significantly increased the colon length
colon weight (in words) [2, 5]: significantly reduced the colon weight

C[C@@H]1CCN(C(=O)CC#N)C[C@@H]1N(C)c1ncnc2[nH]ccc12 [tofacitinib, reference compound]
PASI score (Psoriasis Area Severity Index) [3]: significantly lower PASI
